The values that follow come from ChEMBL document CHEMBL1141381, “Alkynylpyrimidine amide derivatives as potent, selective, and orally active inhibitors of Tie-2 kinase” (J Med Chem, 2007).

In data set [1] the target is Tyrosine-protein kinase Lyn (Homo sapiens, UniProt P07948). As to the kind of experiment: Inhibition of Lyn.
The nature of data set [2]: Volume of distribution in Sprague-Dawley rat at 2 mg/kg, iv. The class given is ADME, organism-based. On the set-up: dose 2 mg/kg, route intravenous. To be noted: in vivo, read-out: Vss.
The target in data set [3] is Tyrosine-protein kinase CSK (Homo sapiens, UniProt P41240). The data set can be described thus: Inhibition of CSK.
Data set [4] is described as follows: AUC (0-infinity) in Sprague-Dawley rat at 5 mg/kg, po. The class given is ADME, organism-based. To be noted: plasma. Set-up: time infinity, dose 5 mg/kg, route oral.
Data set [5] can be described thus: Oral bioavailability in Sprague-Dawley rat at 5 mg/kg, po. As to conditions: in vivo. The class given is ADME, organism-based.
In data set [6] the target is Hepatocyte growth factor receptor (Homo sapiens, UniProt P08581). As to the kind of experiment: Inhibition of c-Met.
Data set [7] is described as follows: Plasma protein binding in CD1 NU/NU mouse. It counts as ADME, cell-free. As to conditions: read-out: PPB (converted).
Data set [8] concerns the target T1, Tyrosine-protein kinase ITK/TSK (Homo sapiens, UniProt Q08881).
T1 sequence (Q08881 whole entry): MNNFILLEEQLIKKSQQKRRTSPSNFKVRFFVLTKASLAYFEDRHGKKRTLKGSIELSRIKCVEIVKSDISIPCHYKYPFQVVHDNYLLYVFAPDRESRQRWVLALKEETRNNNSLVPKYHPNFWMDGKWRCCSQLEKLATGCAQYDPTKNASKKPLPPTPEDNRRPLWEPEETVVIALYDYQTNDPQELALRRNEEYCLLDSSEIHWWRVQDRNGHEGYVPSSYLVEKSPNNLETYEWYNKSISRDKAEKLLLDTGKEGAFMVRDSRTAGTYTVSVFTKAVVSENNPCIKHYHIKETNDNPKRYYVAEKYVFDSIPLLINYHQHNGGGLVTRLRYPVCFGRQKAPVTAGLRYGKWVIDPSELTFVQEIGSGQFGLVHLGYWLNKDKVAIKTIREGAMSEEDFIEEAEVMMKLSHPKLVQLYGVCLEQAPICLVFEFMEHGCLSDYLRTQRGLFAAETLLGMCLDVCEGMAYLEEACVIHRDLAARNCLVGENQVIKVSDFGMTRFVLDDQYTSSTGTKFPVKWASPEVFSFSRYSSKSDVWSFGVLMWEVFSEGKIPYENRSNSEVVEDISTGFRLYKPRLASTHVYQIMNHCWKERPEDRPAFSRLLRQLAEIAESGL
As to the kind of experiment: Inhibition of ITK.

Data set [9] has as its target T2, Angiopoietin-1 receptor (Homo sapiens, UniProt Q02763). As to the kind of experiment: Inhibition of Ang1-stimulated TIE2 phosphorylation in EA.hy 926 endothelial cell line. It counts as functional, cell-based.
The target in data set [10] is Tyrosine-protein kinase Fes/Fps (Homo sapiens, UniProt P07332). As to the kind of experiment: Inhibition of Fes.
Data set [11] addresses Tyrosine-protein kinase JAK1 (Homo sapiens, UniProt P23458). The data set can be described thus: Inhibition of Jak1.
The target in data set [12] is Angiopoietin-1 receptor (Mus musculus) (UniProt Q02858). As to the kind of experiment: Inhibition of angiopoietin-1-induced TIE2 phosphorylation in CD1 NU/NU mouse. The class given is functional.
In data set [13] the target is Mast/stem cell growth factor receptor Kit (Homo sapiens, UniProt P10721). As to the kind of experiment: Inhibition of c-Kit.
Data set [14] deals with T3, Tyrosine-protein kinase JAK3 (Homo sapiens, UniProt P52333).
T3 sequence (P52333 whole entry): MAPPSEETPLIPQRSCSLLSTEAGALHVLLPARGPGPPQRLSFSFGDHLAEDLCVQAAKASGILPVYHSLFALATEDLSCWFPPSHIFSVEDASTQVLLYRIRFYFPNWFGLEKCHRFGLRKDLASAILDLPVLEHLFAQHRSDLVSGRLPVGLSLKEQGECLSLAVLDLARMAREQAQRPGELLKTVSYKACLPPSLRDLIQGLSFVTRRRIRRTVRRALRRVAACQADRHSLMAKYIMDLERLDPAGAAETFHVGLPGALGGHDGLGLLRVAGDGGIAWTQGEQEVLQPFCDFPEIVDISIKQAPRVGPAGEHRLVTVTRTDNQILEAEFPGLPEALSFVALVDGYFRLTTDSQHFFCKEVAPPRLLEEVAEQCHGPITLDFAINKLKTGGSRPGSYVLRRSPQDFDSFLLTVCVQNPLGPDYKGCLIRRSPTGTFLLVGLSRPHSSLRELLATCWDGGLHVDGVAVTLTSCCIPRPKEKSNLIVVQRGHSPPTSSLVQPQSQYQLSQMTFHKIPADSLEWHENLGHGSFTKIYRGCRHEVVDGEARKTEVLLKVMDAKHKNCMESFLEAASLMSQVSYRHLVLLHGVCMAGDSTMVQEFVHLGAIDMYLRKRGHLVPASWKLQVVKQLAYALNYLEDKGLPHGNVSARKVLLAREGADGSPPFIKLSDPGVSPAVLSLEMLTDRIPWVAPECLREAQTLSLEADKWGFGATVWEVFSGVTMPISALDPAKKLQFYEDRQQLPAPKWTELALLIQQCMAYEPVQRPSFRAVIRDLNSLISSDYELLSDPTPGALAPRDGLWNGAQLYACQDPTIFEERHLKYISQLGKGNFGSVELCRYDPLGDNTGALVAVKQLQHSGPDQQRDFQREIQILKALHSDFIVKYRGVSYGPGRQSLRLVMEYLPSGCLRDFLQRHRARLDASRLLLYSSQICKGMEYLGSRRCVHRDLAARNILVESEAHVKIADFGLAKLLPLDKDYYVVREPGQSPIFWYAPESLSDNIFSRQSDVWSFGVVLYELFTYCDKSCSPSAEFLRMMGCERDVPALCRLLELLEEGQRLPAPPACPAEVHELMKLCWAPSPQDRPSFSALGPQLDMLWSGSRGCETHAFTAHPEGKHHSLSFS
The data set can be described thus: Inhibition of Jak3.

In data set [15] the target is Tyrosine-protein kinase Fgr (Homo sapiens, UniProt P09769). The data set can be described thus: Inhibition of FGR.
The target of the next data set is Insulin receptor (Homo sapiens, UniProt P06213). The data set can be described thus: Inhibition of INSR.
A short description of data set [16]: Half life in Sprague-Dawley rat at 2 mg/kg, iv. It counts as ADME, organism-based. To be noted: in vivo. On the set-up: dose 2 mg/kg, route intravenous.
In data set [17] the target is High affinity nerve growth factor receptor (Homo sapiens, UniProt P04629). As to the kind of experiment: Inhibition of TrkA.
Data set [18] in a line: Clearance in Sprague-Dawley rat at 2 mg/kg, iv. The class given is ADME, organism-based. On the set-up: dose 2 mg/kg, route intravenous. To be noted: in vivo.
Data set [19] has as its target Mitogen-activated protein kinase 14 (Homo sapiens, UniProt Q16539). The data set can be described thus: Inhibition of p38alpha.
The target in data set [20] is Angiopoietin-1 receptor (Mus musculus) (UniProt Q02858). As to the kind of experiment: Inhibition of angiopoietin-1-induced TIE2 phosphorylation in CD1 NU/NU mouse at 10 mg/kg. It counts as functional, organism-based. On the set-up: dose 10 mg/kg.
Data set [21] has as its target Tyrosine-protein kinase JAK2 (Homo sapiens, UniProt O60674). The data set can be described thus: Inhibition of Jak2.
The next data set deals with T4, Ephrin type-B receptor 4 (Homo sapiens, UniProt P54760).
T4 sequence (P54760 whole entry): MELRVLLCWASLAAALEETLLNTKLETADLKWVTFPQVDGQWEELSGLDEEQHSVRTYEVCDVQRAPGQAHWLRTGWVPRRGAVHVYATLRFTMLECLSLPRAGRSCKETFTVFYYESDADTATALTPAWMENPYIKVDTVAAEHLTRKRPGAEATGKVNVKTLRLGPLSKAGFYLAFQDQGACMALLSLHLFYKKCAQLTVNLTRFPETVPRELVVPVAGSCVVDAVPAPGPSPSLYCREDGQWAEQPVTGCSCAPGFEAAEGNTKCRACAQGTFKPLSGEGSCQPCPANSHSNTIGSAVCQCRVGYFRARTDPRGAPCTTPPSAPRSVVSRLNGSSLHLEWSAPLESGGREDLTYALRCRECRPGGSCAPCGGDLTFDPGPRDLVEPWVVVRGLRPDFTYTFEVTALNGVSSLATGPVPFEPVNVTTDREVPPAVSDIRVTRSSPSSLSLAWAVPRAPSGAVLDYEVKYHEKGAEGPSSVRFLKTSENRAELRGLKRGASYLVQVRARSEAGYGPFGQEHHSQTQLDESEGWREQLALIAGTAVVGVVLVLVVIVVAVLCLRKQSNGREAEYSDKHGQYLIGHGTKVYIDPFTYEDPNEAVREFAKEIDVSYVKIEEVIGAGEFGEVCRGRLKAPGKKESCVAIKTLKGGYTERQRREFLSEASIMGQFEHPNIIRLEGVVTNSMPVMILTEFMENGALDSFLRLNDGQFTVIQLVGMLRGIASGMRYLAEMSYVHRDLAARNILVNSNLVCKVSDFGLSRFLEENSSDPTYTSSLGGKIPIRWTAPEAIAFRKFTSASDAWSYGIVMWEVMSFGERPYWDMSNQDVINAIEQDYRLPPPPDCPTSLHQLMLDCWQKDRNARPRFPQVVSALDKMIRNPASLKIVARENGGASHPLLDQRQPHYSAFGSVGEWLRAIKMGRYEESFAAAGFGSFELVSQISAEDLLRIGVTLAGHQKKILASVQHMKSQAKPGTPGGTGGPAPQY
The data set can be described thus: Inhibition of EpHB4.

The target of data set [22] is T2, Angiopoietin-1 receptor.
Description: Inhibition of TIE2 by HTRF assay
Another data set relates to Mus musculus. The data set can be described thus: Plasma concentration in CD1 NU/NU mouse at 10 mg/kg. It counts as ADME, organism-based. Set-up: dose 10 mg/kg. To be noted: in vivo.
Data set [23] has as its target Vascular endothelial growth factor receptor 2 (Homo sapiens, UniProt P35968).
Data set [24] concerns the target Tyrosine-protein kinase Lck (Homo sapiens, UniProt P06239).

Vascular endothelial growth factor receptor 2, sequence (P35968 whole entry): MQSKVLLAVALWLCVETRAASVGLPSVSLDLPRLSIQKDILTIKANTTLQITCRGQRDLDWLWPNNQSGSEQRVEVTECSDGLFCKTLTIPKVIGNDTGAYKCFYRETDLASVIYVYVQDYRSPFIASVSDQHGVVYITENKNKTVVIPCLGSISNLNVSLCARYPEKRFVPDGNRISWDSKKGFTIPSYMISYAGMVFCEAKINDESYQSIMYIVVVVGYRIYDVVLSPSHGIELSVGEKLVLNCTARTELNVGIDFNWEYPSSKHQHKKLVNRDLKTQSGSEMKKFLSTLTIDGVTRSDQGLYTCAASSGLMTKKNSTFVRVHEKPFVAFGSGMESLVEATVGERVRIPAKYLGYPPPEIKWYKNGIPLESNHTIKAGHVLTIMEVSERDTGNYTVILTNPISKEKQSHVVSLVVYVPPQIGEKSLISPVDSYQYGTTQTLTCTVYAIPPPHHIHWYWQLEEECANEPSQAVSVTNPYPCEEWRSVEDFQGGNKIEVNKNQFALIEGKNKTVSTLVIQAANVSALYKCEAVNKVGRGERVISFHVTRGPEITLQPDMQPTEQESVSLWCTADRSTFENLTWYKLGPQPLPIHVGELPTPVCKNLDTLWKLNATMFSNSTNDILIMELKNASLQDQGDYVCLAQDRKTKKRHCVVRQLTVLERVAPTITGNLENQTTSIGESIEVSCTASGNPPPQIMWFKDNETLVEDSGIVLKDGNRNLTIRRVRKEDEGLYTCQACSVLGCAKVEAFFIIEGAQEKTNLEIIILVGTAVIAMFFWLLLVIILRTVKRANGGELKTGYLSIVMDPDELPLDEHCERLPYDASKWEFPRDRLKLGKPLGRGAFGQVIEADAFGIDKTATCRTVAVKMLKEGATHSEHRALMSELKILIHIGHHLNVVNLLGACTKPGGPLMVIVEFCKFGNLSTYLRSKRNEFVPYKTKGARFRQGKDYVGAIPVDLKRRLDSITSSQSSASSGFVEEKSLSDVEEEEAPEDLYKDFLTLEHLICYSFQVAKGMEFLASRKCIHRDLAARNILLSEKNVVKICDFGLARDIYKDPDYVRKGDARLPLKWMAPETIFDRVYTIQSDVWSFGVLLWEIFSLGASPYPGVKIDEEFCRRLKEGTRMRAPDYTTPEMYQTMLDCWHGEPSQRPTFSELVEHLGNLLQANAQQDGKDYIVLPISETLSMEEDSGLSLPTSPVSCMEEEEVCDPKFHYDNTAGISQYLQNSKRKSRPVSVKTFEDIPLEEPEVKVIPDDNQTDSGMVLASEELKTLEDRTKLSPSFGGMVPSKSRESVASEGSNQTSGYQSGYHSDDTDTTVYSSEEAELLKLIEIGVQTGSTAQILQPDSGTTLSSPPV
Tyrosine-protein kinase Lck, sequence (P06239 whole entry): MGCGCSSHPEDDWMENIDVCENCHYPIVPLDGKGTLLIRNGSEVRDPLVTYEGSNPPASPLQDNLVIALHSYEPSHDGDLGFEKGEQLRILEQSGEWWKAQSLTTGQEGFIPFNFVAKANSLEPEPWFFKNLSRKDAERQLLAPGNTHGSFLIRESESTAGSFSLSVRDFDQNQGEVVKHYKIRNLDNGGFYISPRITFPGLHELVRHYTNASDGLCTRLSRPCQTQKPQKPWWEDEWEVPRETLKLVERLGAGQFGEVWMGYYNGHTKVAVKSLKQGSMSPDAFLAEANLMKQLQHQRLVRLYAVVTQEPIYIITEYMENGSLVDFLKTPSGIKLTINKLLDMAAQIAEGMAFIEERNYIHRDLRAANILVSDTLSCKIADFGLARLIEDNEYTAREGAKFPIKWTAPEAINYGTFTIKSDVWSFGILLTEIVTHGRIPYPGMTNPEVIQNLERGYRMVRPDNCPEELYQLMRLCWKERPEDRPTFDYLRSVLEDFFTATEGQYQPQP
T2 sequence (Q02763 whole entry): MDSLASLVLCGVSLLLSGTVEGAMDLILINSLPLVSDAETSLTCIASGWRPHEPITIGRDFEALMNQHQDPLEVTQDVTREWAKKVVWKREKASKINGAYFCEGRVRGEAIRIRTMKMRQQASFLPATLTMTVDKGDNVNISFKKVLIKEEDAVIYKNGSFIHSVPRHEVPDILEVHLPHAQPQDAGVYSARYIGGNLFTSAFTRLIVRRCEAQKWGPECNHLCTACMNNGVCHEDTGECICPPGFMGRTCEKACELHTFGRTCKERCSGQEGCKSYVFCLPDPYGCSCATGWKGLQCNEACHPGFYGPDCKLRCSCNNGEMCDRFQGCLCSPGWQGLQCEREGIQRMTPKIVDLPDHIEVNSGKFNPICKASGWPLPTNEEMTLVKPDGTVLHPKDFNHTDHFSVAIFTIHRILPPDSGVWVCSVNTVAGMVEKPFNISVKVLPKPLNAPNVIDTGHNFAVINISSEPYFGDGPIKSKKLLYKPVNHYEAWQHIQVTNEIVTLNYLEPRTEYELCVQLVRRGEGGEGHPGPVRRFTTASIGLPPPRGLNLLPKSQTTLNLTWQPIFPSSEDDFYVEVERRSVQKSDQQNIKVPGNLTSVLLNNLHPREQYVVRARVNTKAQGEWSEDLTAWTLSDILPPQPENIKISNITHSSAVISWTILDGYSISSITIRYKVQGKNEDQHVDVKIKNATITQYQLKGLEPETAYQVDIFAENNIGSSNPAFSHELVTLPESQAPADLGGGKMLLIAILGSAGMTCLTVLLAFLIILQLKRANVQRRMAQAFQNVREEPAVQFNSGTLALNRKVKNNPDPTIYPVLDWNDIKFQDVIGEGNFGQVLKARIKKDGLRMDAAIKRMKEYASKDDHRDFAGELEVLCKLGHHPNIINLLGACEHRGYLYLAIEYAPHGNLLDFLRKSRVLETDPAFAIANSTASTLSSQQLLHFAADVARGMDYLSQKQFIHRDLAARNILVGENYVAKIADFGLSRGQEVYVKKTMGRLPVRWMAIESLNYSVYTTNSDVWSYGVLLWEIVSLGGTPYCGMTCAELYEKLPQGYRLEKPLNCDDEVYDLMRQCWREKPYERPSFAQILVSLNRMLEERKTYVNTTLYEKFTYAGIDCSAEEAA
Angiopoietin-1 receptor (Mus musculus), sequence (Q02858 whole entry): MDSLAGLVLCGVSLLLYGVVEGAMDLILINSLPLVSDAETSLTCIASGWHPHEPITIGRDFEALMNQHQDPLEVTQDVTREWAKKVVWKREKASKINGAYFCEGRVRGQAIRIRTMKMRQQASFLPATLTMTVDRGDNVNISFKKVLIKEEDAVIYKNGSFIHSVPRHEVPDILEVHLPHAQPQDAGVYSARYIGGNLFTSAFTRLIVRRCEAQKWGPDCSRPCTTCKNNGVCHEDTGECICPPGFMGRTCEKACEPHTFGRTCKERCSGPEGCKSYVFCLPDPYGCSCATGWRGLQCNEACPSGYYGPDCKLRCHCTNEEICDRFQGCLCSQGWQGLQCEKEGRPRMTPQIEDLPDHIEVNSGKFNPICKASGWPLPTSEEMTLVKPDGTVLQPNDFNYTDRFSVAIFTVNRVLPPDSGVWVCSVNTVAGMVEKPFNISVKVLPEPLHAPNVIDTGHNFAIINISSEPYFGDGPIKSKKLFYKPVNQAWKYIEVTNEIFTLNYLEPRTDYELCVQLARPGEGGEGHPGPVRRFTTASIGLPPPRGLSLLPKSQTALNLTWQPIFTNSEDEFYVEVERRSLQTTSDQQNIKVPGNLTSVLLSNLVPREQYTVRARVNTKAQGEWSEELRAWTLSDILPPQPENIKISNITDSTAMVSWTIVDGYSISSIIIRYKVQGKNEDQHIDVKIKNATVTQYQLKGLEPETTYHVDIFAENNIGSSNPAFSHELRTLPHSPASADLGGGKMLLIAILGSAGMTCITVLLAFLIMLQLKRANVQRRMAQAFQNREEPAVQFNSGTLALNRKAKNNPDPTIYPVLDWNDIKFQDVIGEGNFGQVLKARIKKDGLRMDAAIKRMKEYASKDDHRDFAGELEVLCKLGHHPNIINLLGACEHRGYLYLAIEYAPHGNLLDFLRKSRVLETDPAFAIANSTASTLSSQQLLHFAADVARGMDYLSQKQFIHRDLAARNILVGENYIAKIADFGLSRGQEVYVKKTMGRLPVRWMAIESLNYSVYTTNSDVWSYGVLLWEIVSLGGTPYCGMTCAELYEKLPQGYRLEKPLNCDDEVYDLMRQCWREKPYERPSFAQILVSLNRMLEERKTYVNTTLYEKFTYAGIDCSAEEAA
High affinity nerve growth factor receptor, sequence (P04629 whole entry): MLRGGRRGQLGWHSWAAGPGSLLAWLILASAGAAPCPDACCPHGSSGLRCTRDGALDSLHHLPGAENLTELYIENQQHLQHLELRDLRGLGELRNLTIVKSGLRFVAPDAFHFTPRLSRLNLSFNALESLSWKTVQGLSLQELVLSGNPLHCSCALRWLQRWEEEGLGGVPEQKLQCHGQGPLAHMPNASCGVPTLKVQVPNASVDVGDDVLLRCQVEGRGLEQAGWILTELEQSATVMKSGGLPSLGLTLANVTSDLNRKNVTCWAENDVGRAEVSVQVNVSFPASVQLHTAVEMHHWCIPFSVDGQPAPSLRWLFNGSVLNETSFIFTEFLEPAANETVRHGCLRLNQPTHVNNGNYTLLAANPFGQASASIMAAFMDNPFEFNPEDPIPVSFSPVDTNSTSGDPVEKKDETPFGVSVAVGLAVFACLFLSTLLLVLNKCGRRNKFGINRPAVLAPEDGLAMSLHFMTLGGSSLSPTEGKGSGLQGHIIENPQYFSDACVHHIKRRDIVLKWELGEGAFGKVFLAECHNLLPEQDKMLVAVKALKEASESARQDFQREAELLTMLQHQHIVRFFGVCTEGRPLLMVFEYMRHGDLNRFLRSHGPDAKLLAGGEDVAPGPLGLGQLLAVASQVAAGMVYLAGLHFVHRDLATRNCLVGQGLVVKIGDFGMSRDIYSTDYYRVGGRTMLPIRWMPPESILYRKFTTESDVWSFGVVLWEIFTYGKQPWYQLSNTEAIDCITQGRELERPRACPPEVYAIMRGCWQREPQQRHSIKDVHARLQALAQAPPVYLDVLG

What is called IC50 is the concentration needed to halve the response being measured. Low readings indicate greater potency in that assay, high ones weaker potency in that assay. The AUC(0-inf) is total exposure, with the tail of the curve extrapolated. A lower AUC(0-inf) goes with less exposure. In general, bioavailability refers to dose-corrected exposure relative to a reference, in per cent. A low value points to little systemic uptake. For orientation: half-life means the time needed for the level to fall by half in the phase considered. Lower therefore signals rapid decline. One may read the clearance as the rate of elimination divided by the concentration. Read a high clearance as efficient removal. For orientation: inhibition means the share of the control response that was lost under treatment. On to `CN(C)[C@H]1CCCN(c2ccc(C(F)(F)F)cc2NC(=O)c2cc(C#Cc3cnc(N)nc3)ccc2F)C1`, for which the IC50 was 0.18 µM in data set [1]; 1.8 µM in data set [3]; over 6.7 µM in data set [6]; over 5 µM in data set [8]; 0.008 µM against Angiopoietin-1 receptor [9]; 0.91 µM in [10]. Further, the IC50 in data set [11] was determined as 1.3 µM; in data set [13], 2.8 µM; in data set [14] it was 1.7 µM; in data set [15] it was 0.043 µM; at Insulin receptor, 2.9 µM; in [17], 0.018 µM. Also, the IC50 in data set [19] is over 8.3 µM; in data set [21], 0.55 µM; against Ephrin type-B receptor 4, 0.29 µM; against Angiopoietin-1 receptor [22] it was 0.005 µM. In [2], the Vd is 11.8 L/kg. For the same compound, in [4], the AUC(0-inf) was determined as 0.8 µg·h/mL. The bioavailability in data set [5] was determined as 39%. In addition, the fraction unbound in data set [7] was 0.021. The Activity result in data set [12] is “Dose-dependent effect”. The compound further had a half-life in data set [16] of 7.9 h. Further, in data set [18], the clearance was 2.4 L/h/kg. The same compound came in with an inhibition in [20] of 50%. Moreover, the concentration in the data set with Mus musculus came out at 1.66 µM.

On to `Nc1ncc(C#Cc2cccc(C(=O)Nc3cccc(C(F)(F)F)c3)c2)cn1`, for which the IC50 in data set [23] is under 0.001 µM.

In the case of `Nc1ncc(C#Cc2cccc(C(=O)Nc3cc(C(F)(F)F)ccc3N3CCCCC3)c2)cn1`, the IC50 in [23] is over 1 µM.

With `Nc1ncc(C#Cc2ccc(F)c(C(=O)Nc3cc(C(F)(F)F)ccc3N3CCC[C@H](N)C3)c2)cn1`, the Vd in data set [2] stood at 4.6 L/kg. In addition, in data set [4], the AUC(0-inf) stood at 9.3 µg·h/mL. Further, the bioavailability in [5] is 51%. The compound further had a half-life in [16] of 11.4 h. The compound further showed a clearance in data set [18] of 0.32 L/h/kg.

In turn, `Cc1ccc(C(=O)Nc2cc(C(F)(F)F)ccc2N2CCCCC2)cc1C#Cc1cnc(N)nc1` registered an IC50 in [23] of over 1 µM.

`CN[C@H]1CCCN(c2ccc(C(F)(F)F)cc2NC(=O)c2cc(C#Cc3cnc(N)nc3)ccc2F)C1`: the Vd in [2] came out at 2.2 L/kg. In data set [4], this compound gave an AUC(0-inf) of 18.6 µg·h/mL. The compound further displayed a bioavailability in [5] of 54%. The half-life in data set [16] was 10.6 h. The clearance in data set [18] is 0.15 L/h/kg.

As to `COc1ccc(C#Cc2cnc(N)nc2)cc1C(=O)Nc1cc(C(F)(F)F)ccc1N1CCCCC1`, the IC50 in [24] was over 25 µM.

`Cc1ccc(C(=O)Nc2cccc(C(F)(F)F)c2)cc1C#Cc1cnc2[nH]cnc2c1`: the IC50 in [24] and in data set [23] was under 0.001 µM in each case.

As to `CN(C)[C@@H]1CCCN(c2ccc(C(F)(F)F)cc2NC(=O)c2cc(C#Cc3cnc(N)nc3)ccc2F)C1`, the IC50 is 0.098 µM at Angiopoietin-1 receptor [9] and 0.044 µM against Angiopoietin-1 receptor [22].

On to `Cc1ccc(C(=O)Nc2cccc(C(F)(F)F)c2)cc1-c1ccc2nc(N)ncc2c1`, for which the IC50 is under 0.001 µM in data set [24] and 0.001 µM on Angiopoietin-1 receptor [22].
